Laboratory results published in patent US9822373B2, “Mutant cells for protein secretion and lignocellulose degradation” (The Regents of the University of California, priority 2011, dated 2017).

Key:
[1] = system: cellulase genes (cbh-1, gh5-1, gh6-2); assay: Quantitative RT-PCR, cellulase gene expression stated for the genes together; type: cell-based, Neurospora crassa; details: for induction of cellulase gene expression: 4 hour induction with 1 mM; for induction of lignocellulolytic genes: wild-type N. crassa (WT) grown on the substance as sole carbon source
Experimental: Conidia from strains were inoculated at an OD595 equal to 0.05 in 50 ml Vogel's salts (45) with 2% w/v sucrose in a 250 ml Erlenmeyer flask and grown under constant light at 200 rpm for 16 hours. Biomass was then spun at 4200 rpm for 10 minutes and washed in Vogel's salts twice to remove any excess sucrose. […] Cultures were induced for 4 hrs under constant light at 200 rpm. The culture biomass was then harvested by filtration over a Whatman glass microfiber filter (GF/F) on a Buchner funnel and washed with 50 ml Vogel's salts. The biomass was flash frozen in liquid nitrogen and stored at −80° C. Three independent biological duplicates (flasks) were evaluated for each time point.
Total RNA from frozen samples was isolated using Zirconia/Silica beads (0.5 mm diameter; Biospec) and a Mini-Beadbeater-96 (Biospec) with 1 mL TRIzol reagent (Invitrogen) according to the manufacturer's instructions. The total RNA was further purified by digestion with TURBO DNA-free (Ambion) and an RNeasy kit (Qiagen). RNA concentration and integrity was checked by Nanodrop and agarose gel electrophoresis.
Quantitative RT-PCR was performed using the EXPRESS One-Step SYBR GreenER Kit (Invitrogen) and the StepOnePlus Real-Time PCR System (Applied Biosystems). Reactions were performed in triplicate with a total reaction volume of 10 μl including 300 nM each forward and reverse primers and 75 ng template RNA. Data Analysis was performed by the StepOne Software (Applied Biosystems) using the Relative Quantitation/Comparative CT (ΔΔCT) setting. Data was normalized to the endogenous control actin with expression on sucrose as the reference sample.

Neurospora crassa [2] = assay: Secreted protein concentration in shake flask culture supernatant; type: cell-based; details: for secreted protein concentration: 48 hours
Experimental: (§1) Strains were inoculated at an OD595 equal to 0.05 in 100 ml Vogel's salts with 1% (wt/vol) sucrose in a 250 ml Erlenmeyer flask and grown under constant light at 200 rpm for 24 hours. Cultures were then induced with 2% sucrose, 2% cellobiose, 1% sucrose/1% cellobiose, or 1% sucrose/1% Avicel®. Cultures continued to grow under constant light at 200 rpm for 5 days with supernatant collected at 1, 2, 3, 4 and 5 day. The collected supernatant was filtered through a 0.2 μm PES filter to remove biomass before being stored at −20° C. until all samples were collected. To visualize the secreted proteins, 15 μl of unconcentrated supernatant was run on a Criterion 10% Tris-HCL polyacrylamide gel and stained with Thermo Scientific GelCode Blue Stain Reagent.

[3] = system: Exoglucanase (Cellobiohydrolase I); assay: MuLac (4-Methylumbelliferyl β-D-cellobioside) exoglucanase activity of culture supernatant; type: cell-based, Neurospora crassa
Experimental: as §1
Exoglucanase (Cellobiohydrolase I) activity was measured using a 4-Methylumbelliferyl β-D-cellobioside (MuLac) assay. This assay mainly measures the activity of CBH-1 and activity is expressed as the change in fluorescence over time resulting in the slope of a best-fit line as an indication of enzyme activity. Prior to performing this assay, any excess sugars in the culture supernatant were removed by passing the supernatant over a 5,000 Dalton concentrator (sartorius stedim Vivaspin 500). Retained proteins were washed twice with 50 mM sodium acetate pH 5 and diluted to 2 μg/μl to assure that the assay remained in the linear range. […] The assay was performed in a Beckman Coulter Paradigm plate reader set at 40° C. with excitation/emission wavelengths of 360/465 nm with readings every 30 seconds for 10 minutes. The slope of the best-fit line represents the MuLac activity for an individual culture supernatant. The MuLac activity is normalized to the initial dilution required to obtain a 2 μg/μl concentration in order to represent the undiluted activity. The activity of recombinant cellobiohydrolase-1 was used as a standard and data is presented as a percentage of the wild type activity on Avicel® after 4 days.

Neurospora crassa [4] = assay: Avicel hydrolysis assay with shake flask culture supernatants; type: cell-based
Experimental: Cultures were grown in 1% sucrose for 24 hours followed by the addition of 2% sucrose or 0.2% cellobiose. Supernatant was harvested after 24 (WT, Δ3βG and Δ3βGΔcre) or 72 hours (Δ3βG). The WT Avicel® culture was grown for 5 days on 2% Avicel®, Δ3βG was grown in 1% sucrose for 24 hours followed by 48 hours in 1% Avicel® and Δ3βGΔcre was grown in 1% sucrose for 24 hours followed by 24 hours in 1% Avicel®.
Total Avicelase activity was conducted in 250 mL media bottles incubated at 50° C. on a orbital shaker at 200 rpm. Each bottle contained 1% cellulose (Avicel®) and 50 mM (pH 5.0) sodium acetate in a working volume of 50 mL. Tetracycline (10 μg/mL) was added to prevent microbial contamination. Bioreactor culture broth samples were buffer exchanged using a 10 kDa MWCO centrifugal filter to remove any soluble sugars prior to initiating hydrolysis experiments. After pre-incubating the hydrolysis mixture to 50° C., enzyme was added (1 mL filtered culture broth). Samples were taken every 4 hours for the first 12 hours and then every 12 hours thereafter for a total of 48 hours. Hydrolysis experiments were performed in triplicate.
Sucrose, fructose, glucose and cellobiose were measured on a DIONEX ICS-3000 HPLC (Dionex Corp., Sunnyvale, Calif.) using a CarboPac PA20 Analytical Column (3×150 mm) and a CarboPac PA20 guard column (3×30 mm) at 30° C. Following injection of 25 μl of diluted samples, elution was performed with 100 mM KOH (isocratic) at 0.4 ml/min. Sugars were detected using PAD, Four-Potential Carbohydrate Waveform and Peaks were analyzed using the Chromeleon software package.

Compound | induction of cellulase gene expression ([1]; WT) | induction of cellulase gene expression ([1]; Δ3βG mutant) | induction of lignocellulolytic genes [1] | other results
O=C[C@H](O)[C@@H](O)[C@@H](O)[C@H](O)CO [D-(+)-galactose] | did not significantly induce | did not significantly induce | – | –
OC[C@H]1O[C@@H](O[C@H]2[C@H](O)[C@@H](O)[C@H](O[C@H]3[C@H](O)[C@@H](O)[C@H](O[C@H]4[C@H](O)[C@@H](O)C(O)O[C@@H]4CO)O[C@@H]3CO)O[C@@H]2CO)[C@H](O)[C@@H](O)[C@@H]1O (some centres unmarked) [cellotetraose] | – | – | not induced | –
OC[C@H]1O[C@@H](O[C@H]2[C@H](O)[C@@H](O)[C@H](O[C@H]3[C@H](O)[C@@H](O)C(O)O[C@@H]3CO)O[C@@H]2CO)[C@H](O)[C@@H](O)[C@@H]1O (some centres unmarked) [cellotriose] | – | – | not induced | –
OC[C@H]1O[C@@H](O[C@H]2[C@H](O)[C@@H](O)C(O)O[C@@H]2CO)[C@H](O)[C@@H](O)[C@H]1O (some centres unmarked) [lactose] | did not significantly induce | did not significantly induce | – | –
OC[C@H]1O[C@@H](O[C@H]2C(O)O[C@H](CO)[C@@H](O)[C@@H]2O)[C@H](O)[C@@H](O)[C@@H]1O (some centres unmarked) [sophorose] | did not significantly induce | did not significantly induce | – | –
OC[C@H]1O[C@@](CO)(O[C@H]2O[C@H](CO)[C@@H](O)[C@H](O)[C@H]2O)[C@@H](O)[C@@H]1O [sucrose] | – | – | not induced | secreted protein concentration (Neurospora crassa [2]; WT): 270 µg/mL; secreted protein (Neurospora crassa [2]; triple β-glucosidase deletion, after 2 days): 180 µg/mL; secreted protein concentration (Neurospora crassa [2]; Δcre-1): 481 µg/mL; MuLac activity ([3]; triple β-glucosidase deletion, two days): no activity towards MuLac; activity of secreted proteins towards MuLac ([3]; Δcre-1, on sucrose): do not exhibit any activity towards MuLac; hydrolysis of crystalline cellulose by culture supernatant (Neurospora crassa [4]; WT cultures grown on or induced with the substance): unable to produce glucose or cellobiose from crystalline cellulose; hydrolysis of crystalline cellulose by culture supernatant (Neurospora crassa [4]; Δ3βG cultures grown on or induced with the substance): unable to produce glucose or cellobiose from crystalline cellulose; hydrolysis of crystalline cellulose by culture supernatant (Neurospora crassa [4]; Δ3βGΔcre cultures grown on or induced with the substance): unable to produce glucose or cellobiose from crystalline cellulose
